According to paper PMC5325331, “A steroid like phytochemical Antcin M is an anti-aging reagent that eliminates hyperglycemia-accelerated premature senescence in dermal fibroblasts by direct activation of Nrf2 and SIRT-1” (Oncotarget, 2016):

Key:
[1] = test system: SIRT-1, SIRT-3 and SIRT-6 mRNA; assay: Q-PCR of SIRT genes in HNDFs; assay type: cell-based, human; conditions: ANM 10 μM, 72 h
Description: Total RNA was extracted from cultured HNDFs using Trizol Reagent (Thermo Fisher Scientific). Q-PCR analysis was performed using Applied Biosystems detection instruments and software. Forward and reverse primers (10 μM), and the working solution SYBR green, was used as a PCR master mix, under the following conditions: 96°C for 3 minutes followed by 40 cycles at 96°C for 1 minute, 50°C for 30 seconds and 72°C for 90 seconds. GAPDH was used as an internal standard to control for variability in amplification because of differences in starting mRNA concentrations. The copy number of each transcript was calculated as the relative copy number normalized by GAPDH copy number.

[2] = test system: HNDFs; assay: Flow cytometric detection of intracellular ROS (DCFH2-DA) in HNDFs; assay type: cell-based, human
Description: Intracellular ROS accumulation was determined using the dye DCFH2-DA following a procedure described earlier. Briefly, HNDFs (1 × 10^5 cells/well) were seeded in 6-well plates and incubated with HG in the presence or absence of test samples for 24 h. At the end of the incubation, the culture supernatant was removed and cells were washed twice with PBS. DCFH2-DA (10 μM) was mixed with 500 μL MEM and added to the culture plate. After incubation for 30 minutes, cells were collected by trypsin and the fluorescence shift was quantified using a flow cytometer (Beckman Coulter). Data were acquired and analyzed using CXP software (Beckman Coulter).

[3] = test system: HUVECs; assay: Intracellular ROS by DCF fluorescence assay in HUVECs; assay type: cell-based, human; conditions: ANM 10 μM with HG (30 mM) for 48 h; HG alone 14.3-fold
Description: Cell viability was dermined by MTT assay. Percentage of viable cells were normalized with control cells (NG). B. Cellular senescence was determined by SA-β-gal activity assay as descrided in Materials and Methods. C., D. Total cell lysate was extracted and senescence-associated marker proteins including p16INK4A, p21CIP1, total and acetylated p53 and FoxO1 were measured by western blot analysis. E. Protein expression levels of SIRT-1 and phos-SIRT-1 were monitored by immunoblotting. […] The intracellular ROS level was quantified by utilizing DCFH-DA assay. G. Western blot analysis was performed to determine the protein expression levels of HO-1 and NQO-1. […] Cell lysates were mixed with luciferase reagents and quantified using an illuminometer. Relative ARE promoter activity was calculated by dividing the relative luciferace unit (RLU) of treated cells by RLU of untraeated cells (NG). Results expressed as mean ± SEM of three indipendent expriments. Statistical significance at ^ФP < 0.05 compared to NG vs. HG and *P < 0.05 compared to HG vs. samples.

[4] = Cell-free DPPH free-radical scavenging assay
Description: Therefore, next to determine whether ANM acts directly as a free-radical scavenger, we performed a cell-free DPPH free-radical scavenging assay.
Figure 5 Antcin M activates Nrf2-dependent anti-oxidant defense in HNDFs A. To determine the free-radical scavenging effect of ANM, cell-free DPPH assay was performed. […] Results expressed as mean ± S.E.M of three indipendent expriments.

[5] = test system: C. elegans wild type Bristol N2; assay: Stress-resistance assay (Juglone) in C. elegans; assay type: in vivo, Caenorhabditis elegans; conditions: pretreatment 10 μM for 3 days, then Juglone 250 μM for 2.5, 3.5 and 4.5 h
Description: The wild type Bristol N2 strain was used in this study. C. elegans and Escherichia coli OP50 strain were obtained from the Caenorhabditis Genetic Center, University of Minnesota (Minneapolis-St. Paul, MN). Worms were maintained at 20°C on nematode growth medium (NGM). Hatched worms (L1-stage larvae) were transferred to fresh agar plates and cultured with E. coli OP50 as a food source until they reached the L4 larvae stage. Synchronization of worm cultures was achieved by hypochlorite treatment of gravid hermaphrodites.
Age synchronized L1 larvae were incubated with liquid S-basal medium containing E. coli OP50 at a density of 1 × 10^9 cells. Ml and 10 and 20 μM ANM or 0.01% DMSO (vehicle control) for 3 days. Subsequently, adult worms were subjected to oxidative stress assay. To induce oxidative stress, worms were incubated with Juglone (5-hydroxyl-1,4-naphthoquinone; Sigma), an ROS-generating agent. ANM treated and control worms were transferred to S-basal medium containing 250 μM Juglone, and incubated from 2.5, 3.5 and 4.5 h. After treatment, viable worms were scored. […] The test was performed triplicate.

[6] = test system: HUVECs; assay: Cell viability of HUVECs (MTT assay); assay type: cell-based, human; conditions: ANM 10 μM or RES 5 μM for 48 h
Description: Human normal dermal fibroblasts ([…]) and human umbilical vein endothelial cells (HUVECs) were obtained from the Bioresource Collection and Research Center (BCRC), Hsinchu, Taiwan. […] Likewise, HUVECs were grown in M-199 medium supplemented with ECGS, heparin, 10% FBS and 100 U/mL penicillin and streptomycin at 37°C in a fully humidified atmosphere of 5% CO2. High-glucose treatment was performed by treating cells with 15 or 30 mM D-glucose (HG) for 24-72 h. […] Cell viability was assessed by MTT colorimetric assay. […] After treatment with HG (15 and 30 mM) in the presence or absence of samples for 24-72 h, culture media was withdrawn and incubated with MTT (1 mg/mL) in fresh medium for 2 h. The MTT formazan crystals were dissolved in 400 μL of DMSO and the samples were measured at 570 nm […] using an ELISA microplate reader (Bio-Tek Instruments, Winooski, VT). The percentage of cell viability (%) was calculated as (A570 of treated cells/A570 of untreated cells) × 100.

C=C(CCC(C)C1CCC2C3=C(C(=O)C(O)C21C)C1(C)CCC(O)C(C)C1CC3)C(C)C(=O)O (stereo not shown) [ANM, antcin M]
SIRT-1, SIRT-3 and SIRT-6 levels compared to the control group [1]: significantly increased
HG-induced ROS generation ([2]; ANM 10 μM or NAC 100 μM with HG (30 mM) for 24 h, HG alone 426.2%): 200.8%
ROS generation, treatment alone ([2]; ANM 10 μM or NAC 100 μM without HG, 24 h): did not significantly increase ROS generation
intracellular ROS levels [3]: 6.1 fold
free-radical scavenging in the cell-free system [4]: failed to scavenge free radicals
survival rate of worms exposed to oxidative stress [5]: significantly increased the survival rate
cell viability of HUVECs, treatment alone [6]: did not affect cell viability
